Measured values from patent US8906913B2, “Azabicyclohexanes” (Panacea Biotec Limited, priority 2009, dated 2014).
≈ marks a conversion by molar mass, not a printed value.

What was measured:
Experiment in all cases: In-vitro antibacterial activity, broth microdilution MIC
Type in all cases: cell-based
[1] = tested on: Enterococcus faecalis ATCC 29212 Vancomycin Sensitive; conditions: ATCC29212, Table 7, E. faecalis vancomycin sensitive, broth microdilution, 35±2° C., 16-20 h, read-out: MIC ATCC 29212
Experimental: (§1) The in-vitro antibacterial activity of the compounds of the present invention (as described in Table 7) was determined by a broth microdilution following the guidelines prescribed by the Clinical and Laboratory Standards Institute (CLSI). This method is described in the CLSI Document M7-A7, Vol. 26, No. 2, “Methods for Dilution Antimicrobial Susceptibility Test for Bacteria that Grow Aerobically; Approved Standard-Seventh Edition”, which is incorporated herein by reference. Minimum Inhibitory Concentration (MIC) is defined as the minimum concentration of test compound which inhibits the growth of bacteria as visible or seen by the naked eye. This test can also be carried out by agar dilution method.
(§2) The compounds of the present invention were tested against a panel of standard microorganisms obtained from ATCC (American type culture collection). Linezolid was used as comparator in all the tests.
(§3) In the broth microdilution method, the compound was dissolved in dimethylsulfoxide and two fold serial dilutions were carried out in 96 well microtitre plates. The inoculum was prepared by adjusting the turbidity of actively growing broth culture and added to the wells to obtain a final bacterial count of ˜2-5×10^4 CFU/well. The microtitre plates were incubated at 35±2° C. for 16-20 h and then read visually.

[2] = tested on: Enterococcus faecium ATCC 700221 VRE (Vancomycin resistant E. faecium); conditions: Table 7, broth microdilution, 35±2° C., 16-20 h, read-out: MIC ATTC 700221
Experimental: as §1, §2, §3

[3] = tested on: Staphylococcus aureus ATCC 29213 MSSA (Methicillin sensitive); conditions: Table 7, S. aureus MSSA, broth microdilution, 35±2° C., 16-20 h, read-out: MIC ATCC 29213
Experimental: as §1, §2, §3

[4] = tested on: Staphylococcus aureus ATCC 33591 MRSA (Methicillin resistant); conditions: Table 7, S. aureus MRSA, broth microdilution, 35±2° C., 16-20 h, read-out: MIC ATCC 33591
Experimental: as §1, §2, §3

Row | SMILES | MIC [1] | MIC [2] | MIC [3] | MIC [4]
1 | CC(=O)NC[C@H]1CN(c2ccc(C34CC3CN(C(=O)c3cn5cccnc5n3)C4)cc2)C(=O)O1 (stereo partly shown) | 1 µg/mL (≈ 2.17 µM) | 1 µg/mL (≈ 2.17 µM) | 2 µg/mL (≈ 4.34 µM) | 2 µg/mL (≈ 4.34 µM)
2 | CC(=O)NC[C@H]1CN(c2ccc(C34CC3CN(C(=O)CCc3ccccc3)C4)cc2)C(=O)O1 (stereo partly shown) | 1 µg/mL (≈ 2.23 µM) | 0.5 µg/mL (≈ 1.12 µM) | 1 µg/mL (≈ 2.23 µM) | 1 µg/mL (≈ 2.23 µM)
3 | CC(=O)NC[C@H]1CN(c2ccc(C34CC3CN(c3ccccn3)C4)cc2)C(=O)O1 (stereo partly shown) | 0.5 µg/mL (≈ 1.27 µM) | 1 µg/mL (≈ 2.55 µM) | 1 µg/mL (≈ 2.55 µM) | 0.5 µg/mL (≈ 1.27 µM)
4 | COC(=O)N1CC2CC2(c2ccc(N3C[C@H](CNC(C)=O)OC3=O)cc2F)C1 (stereo partly shown) | 0.5 µg/mL (≈ 1.28 µM) | 0.5 µg/mL (≈ 1.28 µM) | 1 µg/mL (≈ 2.55 µM) | 0.5 µg/mL (≈ 1.28 µM)
5 | CC(=O)N1CC2CC2(c2ccc(N3C[C@H](Cn4ccnn4)OC3=O)cc2)C1 (stereo partly shown) | 2 µg/mL (≈ 5.44 µM) | 1 µg/mL (≈ 2.72 µM) | 1 µg/mL (≈ 2.72 µM) | 2 µg/mL (≈ 5.44 µM)
6 | COC(=O)N1CC2CC2(c2ccc(N3C[C@H](Cn4ccnn4)OC3=O)cc2)C1 (stereo partly shown) | 2 µg/mL (≈ 5.22 µM) | 1 µg/mL (≈ 2.61 µM) | 1 µg/mL (≈ 2.61 µM) | 0.5 µg/mL (≈ 1.3 µM)
7 | CC(=O)NC[C@H]1CN(c2ccc(C34CC3CN(Cc3cccnc3)C4)cc2)C(=O)O1 (stereo partly shown) | 8 µg/mL (≈ 19.7 µM) | 2 µg/mL (≈ 4.92 µM) | 4 µg/mL (≈ 9.84 µM) | 4 µg/mL (≈ 9.84 µM)
8 | CC(=O)NC[C@H]1CN(c2ccc(C34CC3CN(C(C)=O)C4)c(F)c2)C(=O)O1 (stereo partly shown) | 1 µg/mL (≈ 2.66 µM) | 0.5 µg/mL (≈ 1.33 µM) | 1 µg/mL (≈ 2.66 µM) | 0.5 µg/mL (≈ 1.33 µM)
9 | CC(=O)NC[C@H]1CN(c2ccc(C34CC3CN(c3nccs3)C4)cc2)C(=O)O1 (stereo partly shown) | 0.125 µg/mL (≈ 0.314 µM) | 0.5 µg/mL (≈ 1.25 µM) | 0.5 µg/mL (≈ 1.25 µM) | 0.25 µg/mL (≈ 0.627 µM)
10 | CC(=O)NC[C@H]1CN(c2ccc(C34CC3CN(c3ccc(F)nc3)C4)cc2)C(=O)O1 (stereo partly shown) | 1 µg/mL (≈ 2.44 µM) | 0.5 µg/mL (≈ 1.22 µM) | 1 µg/mL (≈ 2.44 µM) | 0.5 µg/mL (≈ 1.22 µM)

The remaining lines, values ahead:

Row | MIC [1] | MIC [2] | MIC [3] | MIC [4] | SMILES
11 | 2 µg/mL (≈ 5.36 µM) | 1 µg/mL (≈ 2.68 µM) | 2 µg/mL (≈ 5.36 µM) | 1 µg/mL (≈ 2.68 µM) | COC(=O)NC[C@H]1CN(c2ccc(C34CC3CN(C(C)=O)C4)cc2)C(=O)O1 (stereo partly shown)
12 | 2 µg/mL (≈ 4.76 µM) | 2 µg/mL (≈ 4.76 µM) | 2 µg/mL (≈ 4.76 µM) | 1 µg/mL (≈ 2.38 µM) | CC(=O)NC[C@H]1CN(c2ccc(C34CC3CN(C(=O)c3cccnc3)C4)cc2)C(=O)O1 (stereo partly shown)
13 | 2 µg/mL (≈ 5.08 µM) | 1 µg/mL (≈ 2.54 µM) | 2 µg/mL (≈ 5.08 µM) | 1 µg/mL (≈ 2.54 µM) | CC(=O)NC[C@H]1CN(c2ccc(C34CC3CN(S(C)(=O)=O)C4)cc2)C(=O)O1 (stereo partly shown)
14 | 2 µg/mL (≈ 4.98 µM) | 1 µg/mL (≈ 2.49 µM) | 2 µg/mL (≈ 4.98 µM) | 1 µg/mL (≈ 2.49 µM) | CC(=O)NC[C@H]1CN(c2ccc(C34CC3CN(C(=O)OC(C)C)C4)cc2)C(=O)O1 (stereo partly shown)
15 | 0.5 µg/mL (≈ 1.34 µM) | 0.5 µg/mL (≈ 1.34 µM) | 0.5 µg/mL (≈ 1.34 µM) | 0.5 µg/mL (≈ 1.34 µM) | CC(=O)NC[C@H]1CN(c2ccc(C34CC3CN(C(=O)CO)C4)cc2)C(=O)O1 (stereo partly shown)
16 | 1 µg/mL (≈ 2.57 µM) | 1 µg/mL (≈ 2.57 µM) | 1 µg/mL (≈ 2.57 µM) | 1 µg/mL (≈ 2.57 µM) | COC(=O)NC[C@H]1CN(c2ccc(C34CC3CN(C(=O)OC)C4)cc2)C(=O)O1 (stereo partly shown)
17 | 0.5 µg/mL (≈ 1.29 µM) | 0.25 µg/mL (≈ 0.647 µM) | 4 µg/mL (≈ 10.4 µM) | 1 µg/mL (≈ 2.59 µM) | CC(=O)NC[C@H]1CN(c2ccc(C34CC3CN(C(=O)N(C)C)C4)cc2)C(=O)O1 (stereo partly shown)
18 | 0.5 µg/mL (≈ 1.12 µM) | 0.5 µg/mL (≈ 1.12 µM) | 2 µg/mL (≈ 4.49 µM) | 1 µg/mL (≈ 2.24 µM) | CCOC(=O)OCC(=O)N1CC2CC2(c2ccc(N3C[C@H](CNC(C)=O)OC3=O)cc2)C1 (stereo partly shown)
19 | 1 µg/mL (≈ 2.94 µM) | 0.5 µg/mL (≈ 1.47 µM) | 0.5 µg/mL (≈ 1.47 µM) | 0.5 µg/mL (≈ 1.47 µM) | CC(=O)NC[C@H]1CN(c2ccc(C34CC3CN(C#N)C4)cc2)C(=O)O1 (stereo partly shown)
20 | 2 µg/mL (≈ 5.36 µM) | 1 µg/mL (≈ 2.68 µM) | 2 µg/mL (≈ 5.36 µM) | 1 µg/mL (≈ 2.68 µM) | COC(=O)N1CC2CC2(c2ccc(N3C[C@H](CNC(C)=O)OC3=O)cc2)C1 (stereo partly shown)
21 | 2 µg/mL (≈ 4.86 µM) | 1 µg/mL (≈ 2.43 µM) | 2 µg/mL (≈ 4.86 µM) | 2 µg/mL (≈ 4.86 µM) | CC(=O)NC[C@H]1CN(c2ccc(C34CC3CN(C(=O)C(F)(F)F)C4)cc2)C(=O)O1 (stereo partly shown)
22 | 1 µg/mL (≈ 2.29 µM) | 0.5 µg/mL (≈ 1.14 µM) | 1 µg/mL (≈ 2.29 µM) | 1 µg/mL (≈ 2.29 µM) | CC(=O)NC[C@H]1CN(c2ccc(C34CC3CN(C(=O)C(=O)c3ccco3)C4)cc2)C(=O)O1 (stereo partly shown)
23 | 2 µg/mL (≈ 4.83 µM) | 4 µg/mL (≈ 9.65 µM) | 4 µg/mL (≈ 9.65 µM) | 4 µg/mL (≈ 9.65 µM) | CC(=O)NCC(=O)N1CC2CC2(c2ccc(N3C[C@H](CNC(C)=O)OC3=O)cc2)C1 (stereo partly shown)
24 | 1 µg/mL (≈ 2.68 µM) | 0.5 µg/mL (≈ 1.34 µM) | 1 µg/mL (≈ 2.68 µM) | 0.5 µg/mL (≈ 1.34 µM) | COC(=O)N1C[C@@H]2C[C@]2(c2ccc(N3C[C@H](CNC(C)=O)OC3=O)cc2)C1
25 | 1 µg/mL (≈ 2.68 µM) | 1 µg/mL (≈ 2.68 µM) | 2 µg/mL (≈ 5.36 µM) | 1 µg/mL (≈ 2.68 µM) | COC(=O)N1C[C@H]2C[C@@]2(c2ccc(N3C[C@H](CNC(C)=O)OC3=O)cc2)C1
